The values below come from patent US20220017501A1, “MICROBIOCIDAL THIAZOLE DERIVATIVES” (SYNGENTA PARTICIPATIONS AG, priority 2018, published 2022).

One may read the melting point as the temperature, or range, at which the solid turns liquid.

The test system of series [1] is Magnaporthe grisea (Pyricularia oryzae). The series is described as follows: whole plant or invertebrate. Format: in vivo. As to conditions: foliar, read-out: control of Magnaporthe grisea.
The subject of series [2] is Puccinia recondita f. sp. tritici. The series is described as follows: Puccinia recondita f. sp. tritici / wheat / leaf disc preventative (brown rust). Format: in vivo. As to conditions: foliar, wheat leaf segments, preventative (inoculated 1 day after application), compared to untreated control, read-out: control of Puccinia recondite f. sp. tritici. On the procedure:
Example B12: Puccinia Recondita f. sp. Tritici/Wheat/Leaf Disc Preventative (Brown Rust) Wheat leaf segments cv. Kanzler are placed on agar in multiwell plates (24-well format) and sprayed with the formulated test compound diluted in water. The leaf disks are inoculated with a spore suspension of the fungus 1 day after application. The inoculated leaf segments are incubated at 19° C. and 75% rh under a light regime of 12 h light/12 h darkness in a climate cabinet and the activity of a compound is assessed as percent disease control compared to untreated when an appropriate level of disease damage appears in untreated check leaf segments (7-9 days after application). […] […].23.

The subject of series [3] is Blumeria graminis f. sp. tritici (Erysiphe graminis f. sp. tritici). The series is described as follows: Blumeria graminis f. sp. tritici / wheat / leaf disc preventative (powdery mildew on wheat). Format: in vivo. As to conditions: foliar, wheat leaf segments, compared to untreated control. The procedure: Example B4: Blumeria Graminis f. sp. Tritici (Erysiphe Graminis f. sp. Tritici)/Wheat/Leaf Disc Preventative (Powdery Mildew on Wheat) Wheat leaf segments cv. Kanzler are placed on agar in a multiwell plate (24-well format) and sprayed with the formulated test compound diluted in water. The leaf disks are inoculated by shaking powdery mildew infected plants above the test plates 1 day after application. The inoculated leaf disks are incubated at 20° C. and 60% rh under a light regime of 24 h darkness followed by 12 h light/12 h darkness in a climate chamber and the activity of a compound is assessed as percent disease control compared to untreated when an appropriate level of disease damage appears on untreated check leaf segments (6-8 days after application). […].23.

Series [4] concerns Monographella nivalis (Microdochium nivale). Put plainly: Monographella nivalis (Microdochium nivale) / liquid culture (foot rot cereals). Format: cell-based. As to conditions: growth inhibition photometrically 4-5 days after application, read-out: control of Monographella nivalis. The procedure: Example B7: Monographella Nivalis (Microdochium Nivale)/Liquid Culture (Foot Rot Cereals) Conidia of the fungus from cryogenic storage are directly mixed into nutrient broth (PDB potato dextrose broth). After placing a (DMSO) solution of test compound into a microtiter plate (96-well format), the nutrient broth containing the fungal spores is added. The test plates are incubated at 24° C. and the inhibition of growth is determined photometrically 4-5 days after application. […] […].23.

Series [5] deals with Mycosphaerella arachidis (Cercospora arachidicola). Put plainly: Mycosphaerella arachidis (Cercospora arachidicola) / liquid culture (early leaf spot). Format: cell-based. Particulars: growth inhibition photometrically 4-5 days after application, read-out: control of Mycosphaerella arachidis. On the procedure: Example B8: Mycosphaerella Arachidis (Cercospora Arachidicola)/Liquid Culture (Early Leaf Spot) Conidia of the fungus from cryogenic storage are directly mixed into nutrient broth (PDB potato dextrose broth). After placing a (DMSO) solution of test compound into a microtiter plate (96-well format), the nutrient broth containing the fungal spores is added. The test plates are incubated at 24° C. and the inhibition of growth is determined photometrically 4-5 days after application. […] […].23.

Series [6] deals with Glomerella lagenarium (Colletotrichum lagenarium). The series is described as follows: Glomerella lagenarium (Colletotrichum lagenarium) / liquid culture (anthracnose). Format: cell-based. Particulars: Colletotrichum orbiculare, growth inhibition photometrically 3-4 days after application, read-out: control of Glomerella lagenarium. The procedure:
Example B3: Glomerella Lagenarium (Colletotrichum Lagenarium)/Liquid Culture (Anthracnose) Conidia of the fungus from cryogenic storage are directly mixed into nutrient broth (PDB potato dextrose broth). After placing a (DMSO) solution of test compound into a microtiter plate (96-well format), the nutrient broth containing the fungal spores is added. The test plates are incubated at 24° C. and the inhibition of growth is measured photometrically 3-4 days after application.

Series [7] has as its system Mycosphaerella graminicola (Septoria tritici). The series is described as follows: Mycosphaerella graminicola (Septoria tritici) / liquid culture (Septoria blotch). Format: cell-based. As to conditions: Zymoseptoria tritici, growth inhibition photometrically 4-5 days after application, read-out: control of Mycosphaerella graminicola. The procedure:
Example B16: Mycosphaerella Graminicola (Septoria Tritici)/Liquid Culture (Septoria Blotch) Conidia of the fungus from cryogenic storage are directly mixed into nutrient broth (PDB potato dextrose broth). After placing a (DMSO) solution of test compound into a microtiter plate (96-well format), the nutrient broth containing the fungal spores is added. The test plates are incubated at 24° C. and the inhibition of growth is determined photometrically 4-5 days after application. […] […].23.

Regarding `Cc1sc(N(C#N)c2cncc(F)c2)nc1C(=O)NC1CCC1(C)C` (centres unmarked) [I.b.18, 2-[cyano-(5-fluoro-3-pyridyl)amino]-N-(2,2-dimethylcyclobutyl)-5-methyl-thiazole-4-carboxamide], the melting point lay in the range of 150 to 152 °C. Also, the pest or weed control at 200 ppm in series [1] is no less than 80%. The pest or weed control at 200 ppm in series [2] is no less than 80%. The same compound registered a pest or weed control at 200 ppm in series [3] of no less than 80%. Besides, the inhibition of growth at 20 ppm in series [4] is no less than 80%. Further, the inhibition of growth at 20 ppm in series [5] is no less than 80%. The inhibition of growth at 20 ppm in series [6] was no less than 80%. Also, the inhibition of growth at 20 ppm in series [7] was no less than 80%.
